Measurements reported in patent publication US20040152769A1, “Modified carbamate-containing prodrugs and methods of synthesizing same” (priority 2002, published 2004).
≈ marks a conversion by molar mass, not a printed value. Read-outs that look alike come from different tables or passages of the source. Blank lines part the entries; values can stand above or below the molecule they belong to.

Columns and labels:
[1] = Solubility of Dilantin®-PEG3 conjugate in acetonitrile and deionized water (HPLC); type: physicochemical
Procedure: 5,5-diphenylhydrantoin and Dilantin®-PEG3 conjugate prodrug solutions were made in acetonitrile with concentrations of 1.12 mg/mL and 0.8 mg/mL, respectively.
Solutions of 5,5-diphenylhydrantoin and Dilantin®-PEG3 conjugate were then made in deionized water at concentrations of 0.99 mg/mL and 0.93 mg/mL, respectively. These solutions were mixed well by vortexing. 1 mL aliquots were taken and spun by centrifuge at 5000 rpm for five minutes. The resultant supemant was taken and analyzed by HPLC for solution concentration. The concentration of 5,5-diphenylhydrantoin was 4 μg/mL. The concentration of Dilantin®-PEG3 conjugate was 160 μg/mL.

[2] = pH 2.0 stability of prodrugs of the native compound (0.06M phosphate buffer, 37° C., 2 hours, RP-HPLC); conditions: for pH 2 Stability: pH 2.0 phosphate buffer, 37° C.; for % Area of Pro-drug / % Area NC: pH 2.0, 37° C., 2 hours, RP-HPLC; for % Area NC: native compound formed
Procedure: The samples were incubated in a water bath at 37° C. for 2 hours. Each sample was then removed from the water bath and vortexed.

[3] = Oral absorption in rats, parent compound in plasma by LC/MS/MS; conditions: rat, p.o., result in words; for Oral Absorption: first part of Table 2
Procedure: 100 μL of plasma was extracted with 500 μL of acetonitrile, vortexed and centrifuged. The supernatant was removed, evaporated to dryness, and then reconstituted with 100 μL of 30% methanol. The reconstituted samples were then centrifuged to remove particulates. The supernatant was removed and transferred to HPLC vials for detection and quantitation of the parent compound by LC/MS/MS.

[4] = Rat plasma stability of selected prodrugs (37° C., RP-HPLC); type: in vitro ADME; conditions: for % comp. 0′ / % comp. 60′ / % comp. 120′ / % comp. 240′ / % comp. 360′ / % comp. 480′: 37° C., peak area; for % comp. 0′: 0 minutes; for % comp. 60′: 60 minutes; for % comp. 120′: 120 minutes; for % comp. 240′: 240 minutes; for % comp. 360′: 360 minutes; for % comp. 480′: 480 minutes
Procedure: Using 1 mg/mL stock solutions of a prodrug described in Example 6.8 above in acetonitrile, 990 μL of rat plasma was spiked with 10 μL of conjugate. The plasma spikes were incubated at 37° C. 100 μL of each sample at each time-point was removed and the reaction was quenched with 500 μL of acetonitrile. Each sample was vortexed and centrifuged immediately and the resultant supernatant was removed, discarding the pellet. The supernatant was concentrated and reconstituted with 100 μL of 30% acetonitrile. Prior to transferring samples to HPLC vials, the samples were centrifuged for 15 minutes at 14000 rpm at 2° C. to remove particulates. 10 μL of 10 μg/mL standard and 75 μL of reconstituted sample were injected for RP-HPLC analysis.
The stability of the prodrugs was measured by analyzing samples at the following time-points: 0, 60, 120, 240, 360, and 480 minutes. Retention time, peak area, and UV spectrum were measured for each sample and standard. […] A Waters 2690 HPLC was used for sample analysis (column: Delta Pak C18 Guard Column, C18, 5 m, 2.1 mm×50 mm; Collected spectrum: 210-380 nm. Extracted chromatogram: 240 nm; Mobile Phase; 0.1% TFA in Water/0.1% TFA in acetonitrile; flow Rate: 0.5 mL/minute).

[5] = Chemical hydrolysis of Dilantin®-conjugate (PEG-3) at a pH of about 2; type: physicochemical; conditions: 0.06M phosphate buffer pH 2.0, 37° C.
Procedure: Aliquots of a stock solution of Dilantin®-PEG3 conjugate in acetonitrile were spiked into 0.06M phosphate buffer, pH 2.0 (2 μl stock solution in 998 μl buffer). The sample was incubated in a water bath at 37° C. At time points one hour apart, a portion of the sample was removed and submitted for immediate analysis by RP-HPLC.

[6] = Stability of Dilantin®-PEG3 conjugate in rat plasma (spike controls, RP-HPLC); type: in vitro ADME
Procedure: Also using a stock solution of Dilantin®-PEG3 conjugate in acetonitrile, the following spike controls were prepared in rat plasma: 1 μg/ml, 750 ng/ml, 500 ng/ml and 250 ng/ml. After vortexing, […] of acetonitrile was added. Each sample was centrifuged immediately and the resultant supernatant was removed and the pellet discarded. The supernatant was concentrated and reconstituted with […] of 30% acetonitrile. […] Samples were submitted for RP-HPLC anaylsis. […] Thus, near complete plasma hydrolysis of the conjugate may occur within 1 minute. Studies were repeated a second day to confirm results.

solubility in acetonitrile [1]: 100%
solubility ([1]; water, thermodynamic from solid): 4 µg/mL (≈ 15.9 µM)
Structure (SMILES): O=C1NC(=O)C(c2ccccc2)(c2ccccc2)N1 [5,5-diphenylhydrantoin, reference compound]

pH 2 Stability [2]: None
Structure (SMILES): CCOC(=O)CCOCCOCCOC [Compound 1]

pH 2 Stability [2]: None
Structure (SMILES): CCOCCOCCOCCC(=O)OCC [Compound 2]

pH 2 Stability [2]: None
Structure (SMILES): CCOC(=O)CCOCCOCCOCCOCCOCCOCCOCCOCCOC [Compound 3]

pH 2 Stability [2]: None
Structure (SMILES): CCOC(=O)COCCOCCOC [Compound 4]

pH 2 Stability [2]: None
Structure (SMILES): CCOC(=O)OCCOCCOCCOC [Compound 5]

Structure (SMILES): COCCOCCOCCOC(=O)N(C(=O)NCCCN1CCC(c2cccc(OC)c2)CC1)c1cccc(C2C(C(=O)OC)=C(C)NC(C)=C2C(=O)OC)c1 [Compound 6]
Oral Absorption [3]: Not Detected
pH 2 Stability [2]: >2 h

Structure (SMILES): COCCOCCOCCOCCOCCOCCOCCOCCOC(=O)N(C(=O)NCCCN1CCC(c2cccc(OC)c2)CC1)c1cccc(C2C(C(=O)OC)=C(C)NC(C)=C2C(=O)OC)c1 [Compound 8]
Oral Absorption [3]: Not Detected
pH 2 Stability [2]: >2 h

Structure (SMILES): COC(=O)C1=C(C)NC(C)=C(C(=O)OC)C1c1cccc(N(C(=O)NCCCN2CCC(c3cccc(OC)c3)CC2)C(=O)OC)c1.Cl [Compound 11]
pH 2 Stability [2]: >2 h

Structure (SMILES): COCCOCCOCCOC(=O)N(C(=O)NCCCN1CCC(c2cccc(OC)c2)CC1)c1cccc(C2C(C(=O)OC)=C(C)NC(C)=C2C(=O)OC)c1.Cl [Compound 13]
% comp. 0′ ([4]; rat plasma): 99.0%
% comp. 60′ ([4]; rat plasma): 98.0%
% comp. 120′ ([4]; rat plasma): 98.0%
% comp. 240′ ([4]; rat plasma): 97.0%
% comp. 360′ ([4]; rat plasma): 96.0%
% comp. 480′ ([4]; rat plasma): 95.0%
% Area of Pro-drug [2]: 100%
% Area NC [2]: 0%
pH 2 Stability [2]: >2 h

Structure (SMILES): CCOC(=O)N(C(=O)NCCCN1CCC(c2cccc(OC)c2)CC1)c1cccc(C2C(C(=O)OC)=C(C)NC(C)=C2C(=O)OC)c1.Cl [Compound 14]
% comp. 0′ ([4]; rat plasma): 98.0%
% comp. 60′ ([4]; rat plasma): 98.0%
% comp. 120′ ([4]; rat plasma): 97.5%
% comp. 240′ ([4]; rat plasma): 96.5%
% comp. 360′ ([4]; rat plasma): 96.0%
% comp. 480′ ([4]; rat plasma): 95.0%
pH 2 Stability [2]: >2 h

Structure (SMILES): COC(=O)C1=C(C)NC(C)=C(C(=O)OC)C1c1cccc(N(C(=O)NCCCN2CCC(c3cccc(OC)c3)CC2)C(=O)OC(CO)CO)c1.Cl [Compound 16]
% comp. 0′ ([4]; rat plasma): 0%
% comp. 60′ ([4]; rat plasma): 0%
% comp. 120′ ([4]; rat plasma): 0%
% comp. 240′ ([4]; rat plasma): 1%
% comp. 360′ ([4]; rat plasma): 1%
% comp. 480′ ([4]; rat plasma): 1%
stability in rat plasma ([4]; rat plasma, result in words): unstable
prodrug converted to the native compound ([4]; within 30 seconds of being introduced to rat plasma): ~100%
Oral Absorption (Relative AUCs) ([3]; second part of Table 2): Minimal

Structure (SMILES): COCCOCCOCCOCCOC(=O)N(C(=O)NCCCN1CCC(c2cccc(OC)c2)CC1)c1cccc(C2C(C(=O)OC)=C(C)NC(C)=C2C(=O)OC)c1.Cl [Compound 17]
% comp. 0′ ([4]; rat plasma): 99.7%
% comp. 60′ ([4]; rat plasma): 99.0%
% comp. 120′ ([4]; rat plasma): 98.5%
% comp. 240′ ([4]; rat plasma): 98.0%
% comp. 360′ ([4]; rat plasma): 97.0%
% comp. 480′ ([4]; rat plasma): 96.0%
% Area of Pro-drug [2]: 100%
% Area NC [2]: 0%
pH 2 Stability [2]: >2 h

Structure (SMILES): COCCOCCOCCOCCOCCOCCOCCOCCOC(=O)N(C(=O)NCCCN1CCC(c2cccc(OC)c2)CC1)c1cccc(C2C(C(=O)OC)=C(C)NC(C)=C2C(=O)OC)c1.Cl [Compound 19]
% comp. 0′ ([4]; rat plasma): 97.0%
% comp. 60′ ([4]; rat plasma): 97.0%
% comp. 120′ ([4]; rat plasma): 96.5%
% comp. 240′ ([4]; rat plasma): 96.0%
% comp. 360′ ([4]; rat plasma): 95.3%
% comp. 480′ ([4]; rat plasma): 94.0%
pH 2 Stability [2]: >2 h

Structure (SMILES): COCCOCCOC(=O)N(C(=O)NCCCN1CCC(c2cccc(OC)c2)CC1)c1cccc(C2C(C(=O)OC)=C(C)NC(C)=C2C(=O)OC)c1.Cl [Compound 21]
% Area of Pro-drug [2]: 100%
% Area NC [2]: 0%
pH 2 Stability [2]: >2 h

Structure (SMILES): COCCOC(=O)N(C(=O)NCCCN1CCC(c2cccc(OC)c2)CC1)c1cccc(C2C(C(=O)OC)=C(C)NC(C)=C2C(=O)OC)c1.Cl [Compound 22]
% Area of Pro-drug [2]: 100%
% Area NC [2]: 0%
pH 2 Stability [2]: >2 h

solubility in acetonitrile ([1]; acetonitrile, 1.12 mg/mL (5,5-diphenylhydrantoin) and 0.8 mg/mL (conjugate)): 100%
concentration in supernatant (solubility in water) ([1]; deionized water, made at 0.99 mg/mL and 0.93 mg/mL, centrifuged, HPLC): 160 µg/mL
Dilantin ® -PEG3 (Remaining), % ([5]; time 0 hours): 100%
Dilantin ® -PEG3 (Remaining), % ([5]; time 2 hours): 96.79%
Dilantin ® -PEG3 (Remaining), % ([5]; time 3 hours): 94.99%
time to near complete plasma hydrolysis of the conjugate ([6]; rat plasma): ≤ 1 min
species found in extracted rat plasma samples ([6]; rat plasma spiked at 1 μg/ml, 750, 500 and 250 ng/ml, RP-HPLC): only the presence of phenyloin
Structure (SMILES): COCCOCCOCCOC(=O)N1C(=O)NC(c2ccccc2)(c2ccccc2)C1=O [Dilantin®-PEG3 conjugate]
solubility in water compared with native drug ([1]; deionized water): more soluble in water than the native drug

pH 2 Stability: >2 h
Structure (SMILES): COC(=O)C1=C(C)NC(C)=C(C(=O)OC)C1c1cccc(NC(=O)NCCCN2CCC(c3cccc(OC)c3)CC2)c1 [Native drug, 1,4-Dihydro-[3-[[[[3-[4-(3-methoxyphenyl)-1-piperidinyl]propyl]amino]carbonyl]amino]phenyl]-2,6-dimethyl-3,5-pyridinedicarboxylic acid, dimethyl ester]
